# US10407445B2, “Hepatitis C virus inhibitors” (ENANTA PHARMACEUTICALS, INC., priority 2013, dated 2019)
# Columns and labels:
# Format in all cases: cell-based
# GT2a-2a-J6 replicon = test: Stable replicon assay, comparison to daclatasvir, GT2a-2a-J6; conditions: Hepatitis C virus
# From the text: (§1) The plasmid pSG-hRlucNeo-JFH1 was generated from pSG-Neo-JFH1 (Kato et al. 2003, Gastroentrology 125:1808-1817). A fragment containing the JFH-1 5′ NTR-hRluc-Neo gene and two unique restriction sites (AgeI and PmeI) was synthesized (Integrated DNA Technologies, Coralville, Iowa). The resulting plasmid was digested with AgeI and PmeI and the excised fragment (5′NTR-hRluc-Neo) was ligated into pSG-Neo-JFH1 digested with the same enzymes to generate pSG-hRlucNeo-JFH1. To allow expression of heterologous NS5A sequences, an NS5A shuttle vector was generated from pSG-Neo-JFH1, in which the entire coding sequence of NS5A plus the first eight codons of NS5B were replaced with an AfeI restriction site. This was done by Infusion cloning (Clontech, Mountain View, Calif.) from two PCR products that were generated using pSG-Neo-JFH1 as a template and the following primer pairs: […]
# (§2) Stable HCV replicon cell lines were grown in complete media (Dulbecco's modified Eagle medium [DMEM], 2 mM L-glutamine, 0.1 mM essential amino acids, 1 mM sodium pyruvate, 10% fetal bovine serum) with the addition 500 μg/ml […] (G418). […] For stable and transient replicon assays, luciferase activity of compound-treated cells was measured relative to DMSO-treated cells after 72 h incubation using RENILLA-GLO™ Luciferase Assay (Promega). […]
# [1] = system: HCV genotype 1a replicon, NS5A M28T Q30H; test: Transient replication assay, GT1a NS5A M28T Q30H; conditions: Hepatitis C virus
# [2] = system: HCV genotype 1a replicon, NS5A Q30R H58D; test: Transient replication assay, GT1a NS5A Q30R H58D; conditions: Hepatitis C virus
# [3] = system: HCV genotype 1a replicon, NS5A K24E; test: Transient replication assay, GT1a NS5A K24E; conditions: Hepatitis C virus
# GT2a-5a-SA13 replicon = test: Stable replicon assay, comparison to daclatasvir, GT2a-5a-SA13; conditions: Hepatitis C virus
# From the text: as §1, §2
# [4] = system: HCV genotype 1a replicon, NS5A K24R; test: Transient replication assay, GT1a NS5A K24R; conditions: Hepatitis C virus
# GT1b-Con1 replicon = test: Stable replicon assay, comparison to daclatasvir, GT1b-Con1; conditions: Hepatitis C virus; Replicon GT1b-Con1, NS5A genotype 1b
# Experimental: Stable HCV replicon cell lines were grown in complete media (Dulbecco's modified Eagle medium [DMEM], 2 mM L-glutamine, 0.1 mM essential amino acids, 1 mM sodium pyruvate, 10% fetal bovine serum) with the addition 500 μg/ml […] (G418). Huh7-lunet cells were maintained in the same medium without the addition of G418. Cells were routinely passaged at a dilution of 1:5 two times per week. For stable replicon assays (GT1a-H77, GT1b-Con1, GT2a-JFH, GT2a-J6, GT2a-2b-MD2b, GT2a-2b-J8, GT2a-3a-S52, GT3a-552, GT4a-ED43, GT2a-5a-SA13, GT2a-6a-EUKH2, GT2a-6a-HK6a, and GT2a-7a-QC69), an 8-point 3-fold or half-log dilution series of compound was transferred into three replica 96-well plates containing 1×10^4 cells per well in phenol red-free complete media without G418. For the transient replication assay, Huh7-lunet cells in ice-cold phosphate buffered saline (PBS) were electroporated (Bio-Rad Gene pulser: 950 uF, 270V) with 10 μg purified in vitro transcribed HCV replicon RNA, followed by resuspension in phenol red-free complete media without G418 and plating (1×10^4 cells in 200 μL media/well) into three replica 96-well plates prior to compound addition (1 μl compound per well). For stable and transient replicon assays, luciferase activity of compound-treated cells was measured relative to DMSO-treated cells after 72 h incubation using RENILLA-GLO™ Luciferase Assay (Promega). […]
# [5] = system: HCV genotype 1a replicon, NS5A K24G; test: Transient replication assay, GT1a NS5A K24G; conditions: Hepatitis C virus
compound,measurement,setting,value
"COC(=O)N[C@H](C(=O)N1CCC[C@H]1c1nc(-c2ccc(-c3ccc(-c4c[nH]c([C@@H]5CCCN5C(=O)[C@@H](NC(=O)OC)C(C)C)n4)cc3)cc2)c[nH]1)C(C)C [Daclatasvir, reference compound]",EC50,GT2a-2a-J6 replicon,5.8 nM
same,EC50,[1],733 nM
same,EC50,[2],838 nM
same,EC50,[3],0.0022 nM
same,EC50,GT2a-5a-SA13 replicon,0.009 nM
same,EC50,[4],0.011 nM
same,EC50,GT1b-Con1 replicon,0.02 nM
same,EC50,[5],0.02 nM
COC(=O)N[C@H](C(=O)N1C[C@]2(CCCOC2)C[C@H]1c1ncc(-c2ccc(-c3ccc4c(ccc5nc([C@@H]6C[C@@H]7CCC[C@@H]7N6C(=O)[C@@H](NC(=O)OC)C(C)C)[nH]c54)c3)cc2)[nH]1)C(C)C [Compound 16],EC50,GT2a-2a-J6 replicon,0.49 nM
same,EC50,[1],24 nM
same,EC50,[2],2.8 nM
same,EC50,[3],0.0013 nM
same,EC50,GT2a-5a-SA13 replicon,0.005 nM
same,EC50,[4],0.0012 nM
same,EC50,GT1b-Con1 replicon,0.008 nM
same,EC50,[5],0.0021 nM
